The record followed here is patent US20210113522A1, “COUMARIN DERIVATIVE AS ANTI-ASTHMATIC AGENT, PHARMACEUTICAL COMPOSITION THEREOF, ITS PREPARATION AND USE” (I-NOVA MEDICINSKA ISTRAZIVANJA D.O.O., priority 2017, published 2021).

The test system of this test is croton oil-induced ear edema. The test can be described thus: Croton oil-induced ear edema in mice. In kind it is in vivo, Balb/c mice. Particulars: dexamethasone 1 mg/kg, 1 2 mg/kg. From the text: The presents study aims to detect the inflammatory/anti-inflammatory potential effects of compound 1 in a model of acute skin inflammation induced by local application of phlogistic agent croton oil in Balb/c mice. The technique for croton oil-induced ear edema in mice, originally described by Tubaro et al., was followed, with modifications; see literature references 16 and 17: • 16) A. Tubaro, P. Dri, G. Delbello, C. Zilli, R. Della Loggia: The croton oil ear test revisited, Agents Actions 17 (1986) 347-349. • 17) G. Coruzzi, C. Pozzoli, M. Adami, D. Grandi, N. Guido, R. Smits, I. de Esch and R. Leurs: Strain-dependent effects of the histamine H4 receptor antagonist JNJ7777120 in a murine model of acute skin inflammation, Experimental Dermatology 21 (2011) 32-37.
Mice (total 40) were separated into 4 groups (n=10). Each group was treated under different regimen:
Cutaneous inflammation was induced in conscious mice by topical application of croton oil (5% in acetone).
Six hours after croton oil application, mice were euthanized by light ether anaesthesia, followed by cervical dislocation; both left (acetone) and right (croton oil in acetone) ears were removed, by cutting horizontally across the indentation at the base of the ear. For each mouse, the extent of the oedema was expressed as the difference in weight (Δ [mg]) between right (inflamed) and left (uninflamed) ear. The percentage increase in the oedema of the treated ear was calculated by the following formula: […]
The presents study aims to detect the inflammatory/anti-inflammatory potential effects of compound 1 in a model of acute skin inflammation induced by local application of phlogistic agent croton oil in Balb/c mice. The technique for croton oil-induced ear edema in mice, originally described by Tubaro et al., was followed, with modifications; see literature references 16 and 17.
In preliminary experiments, the effect of subcutaneous (s.c.) administration of saline, 100% DMSO or 20% 2-hydroxypropyl-β-cyclodextrin was investigated to check the vehicle effects on ear inflammation.
The statistical significance between the groups was assessed by one-way analysis of variance (ANOVA) followed by a post hoc Tukey test. The accepted level of significance for the test was P<0.05. All tests were carried out using GraphPad Software (San Diego, Calif., USA).

`C[C@@H]1C[C@H]2[C@@H]3CCC4=CC(=O)C=C[C@]4(C)[C@@]3(F)[C@@H](O)C[C@]2(C)[C@@]1(O)C(=O)CO` [dexamethasone, reference compound]: the “Percentage of increasing the ear edema” value (6 h after croton oil) is on record as 44.2%. Besides, under “Balb/c mice, 6 h”, the “Maximal inhibition of croton oil-induced ear oedema” value is recorded as “approximately 60%”. For the setting “left ear: 80% 2HPβCD + 20% DMSO (uninflamed), 6 h”, the Left ear m was 0.0360 g. Besides, the Right ear m (right ear: substance + croton oil after 30 min, 6 h) amounted to 0.0519 g.
